Measured values reported in US20250195460A1, “MEDIUM CHAIN TRIGLYCERIDE AND SHORT CHAIN FATTY ACID COMPOSITIONS & METHODS OF USE THEREOF” (priority 2023, published 2025).

System: HepG2 cells
Test: Ketogenic activity in HepG2 cells (ketone levels in cell supernatants)
Assay type: cell-based
Settings: each component 2.4 mM, glucose-free media, up to 135 minutes, FIG. 1
Experimental: In this Example, the ketogenic activities of various compositions were tested in HepG2 cells. More particularly, the ketogenic activity of butyric acid (2.4 mM) (“BA”) alone; beta-hydroxybutyrate (2.4 mM) (“BHB”) alone; caprylic acid (2.4 mM) (“CA”) alone; caprylic acid (2.4 mM) combined with butyric acid (2.4 mM); and a combination of caprylic acid (2.4 mM), butyric acid (2.4 mM), and beta-hydroxybutyrate (2.4 mM) were all tested in HepG2 cells. Each compound (or combination of compounds) was added to a solvent containing glucose-free media that included 10% fetal bovine serum (FBX), 1 mM sodium pyruvate, and 1 mM glutamine.
Each test composition was administered to HepG2 cells in a cell culture plate. Each composition was tested with three replicates. Ketone levels in the HepG2 cell supernatants were measured at the time of administration (time=0) and every 45 minutes thereafter, up to 135 minutes. The results are presented as the difference between the ketone concentration that was measured at each time point (i.e., measured every 45 minutes) and the ketone concentration that was measured at time=0 for each test composition, such that any positive measurement indicates an increase in ketone levels from the baseline time=0 measurement.

| SMILES | induction of ketogenesis (generation of ketones) |
| --- | --- |
| CCCC(=O)O [butyric acid] | neither butyric acid alone, nor caprylic acid alone, was shown to induce ketogenesis |
| CCCCCCCC(=O)O [caprylic acid, caprylic acid (octanoic acid)] | neither butyric acid alone, nor caprylic acid alone, was shown to induce ketogenesis |
